Test results: US7598245B2 (Vertex Pharmaceuticals Incorporated, priority 2003, dated 2009)

Molecular target: T1, PDK-1 (Homo sapiens, UniProt O15530)
T1 sequence (O15530 1-556): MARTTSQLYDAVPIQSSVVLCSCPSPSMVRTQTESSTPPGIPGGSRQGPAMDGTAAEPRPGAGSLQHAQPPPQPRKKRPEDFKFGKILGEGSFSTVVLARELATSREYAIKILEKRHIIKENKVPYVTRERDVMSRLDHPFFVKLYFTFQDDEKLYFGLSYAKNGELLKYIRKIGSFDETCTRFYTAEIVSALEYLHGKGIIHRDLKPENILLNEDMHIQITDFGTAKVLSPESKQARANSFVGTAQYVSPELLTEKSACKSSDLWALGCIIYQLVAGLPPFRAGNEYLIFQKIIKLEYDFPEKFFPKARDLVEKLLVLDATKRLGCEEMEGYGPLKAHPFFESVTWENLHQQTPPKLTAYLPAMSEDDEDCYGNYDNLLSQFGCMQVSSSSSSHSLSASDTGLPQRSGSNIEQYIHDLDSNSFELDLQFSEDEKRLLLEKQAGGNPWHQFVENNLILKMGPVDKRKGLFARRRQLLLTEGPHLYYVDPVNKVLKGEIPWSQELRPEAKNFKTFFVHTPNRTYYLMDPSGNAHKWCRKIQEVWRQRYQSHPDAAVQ
Assay: PDK-1 inhibition, radioactive-phosphate incorporation assay
Type: biochemical
Conditions: 40 μM ATP
Description: Compounds were screened for their ability to inhibit PDK-1 using a radioactive-phosphate incorporation assay (Pitt and Lee, J. Biomol. Screen., (1996) 1, 47). Assays were carried out in a mixture of 100 mM HEPES (pH 7.5), 10 mM MgCl2, 25 mM NaCl, 2 mM DTT. Final substrate concentrations in the assay were 40 μM ATP (Sigma Chemicals) and 65 μM peptide (PDKtide, Upstate, Lake Placid, N.Y.). Assays were carried out at 30° C. and 25 nM PDK-1 in the presence of ˜27.5 nCi/μL of [γ-^32P]ATP (Amersham Pharmacia Biotech, Amersham, UK). An assay stock buffer solution was prepared containing all of the reagents listed above, with the exception of ATP, and the test compound of interest. 15 μl of the stock solution was placed in a 96 well plate followed by addition of 1 μl of 0.5 mM DMSO stock containing the test compound (final compound concentration 25 μM, final DMSO concentration […]). The plate was preincubated for about 10 minutes at 30° C. and the reaction initiated by addition of 4 μl ATP (final concentration 40 μM).
The reaction was stopped after 10 minutes by the addition of 100 μL 100 mM phosphoric acid, 0.01% Tween-20. A phosphocellulose 96 well plate (Millipore, Cat no. MAPHNOB50) was pretreated with 100 μL 100 mM phosphoric acid, 0.01% Tween-20 prior to the addition of the reaction mixture (100 μL). The spots were left to soak for at least 5 minutes, prior to wash steps (4×200 μL 100 mM phosphoric acid, 0.01% Tween-20). After drying, 20 μL Optiphase ‘SuperMix’ liquid scintillation cocktail (Perkin Elmer) was added to the well prior to scintillation counting (1450 Microbeta Liquid Scintillation Counter, Wallac).

Row | Ki [nM] | SMILES
1 | 1000 to 10000 | COc1cc(Nc2ncn(-c3ccccc3)n2)cc(OC)c1OC [Compound I-42]
2 | 1000 to 10000 | OC[C@H]1CCCN(c2cc(-n3cnc(Nc4ccccc4)n3)ccn2)C1 [Compound I-65]
3 | < 1000 | CC(=O)N1[C@H](C)CN(c2cc(-n3cnc(Nc4ccccc4)n3)ccn2)C[C@@H]1C [Compound I-74]
4 | 1000 to 10000 | c1ccc(-n2cnc(Nc3ccc(N4CCOCC4)nc3)n2)cc1 [Compound I-134]
